{"source": "patent US7375203B2", "about": "“Canine cold- and menthol-sensitive receptor 1” (Janssen Pharmaceutica N.V., priority 2004, dated 2008)", "key": {"cCMR1 channel": {"system": "cCMR1 channel", "test": "Whole-cell patch clamp recording of HEK293 cells stably transfected with cCMR1", "type": "cell-based, canine", "protocol": "HEK293 cells stably transfected with canine cCMR1 were cultured in DMEM supplemented with 10% fetal bovine serum, 100 units/ml penicillin, 100 μg/ml streptomycin and 1 mg/ml G418. Cells were maintained at 37° C. and in 5% CO2. Unless otherwise indicated, the standard extracellular solution used for recording contained (in mM): NaCl, 132; EGTA, 1; KCl, 5.4; MgCl2, 0.8; HEPES, 10; glucose, 10; pH=7.4. In experiments where the extracellular solution contained Ca^2+, the extracellular solution used was one of the following (in mM), depending on the Ca^2+ concentration used: (1) NaCl, 132; CaCl2, 0.1 or 1.8; KCl, 5.4; MgCl2, 0.8; HEPES, 10; glucose, 10; pH=7.4; (2) NaCl, 116; CaCl2, 10; KCl, 5.4; MgCl2, 0.8; HEPES, 10; glucose, 10; pH=7.4. The intracellular solution used to fill recording pipettes contained (in mM): CsCl, 145; EGTA, 5; HEPES, 10; glucose, 5; pH=7.4. Recordings were performed using the conventional whole-cell patch clamp technique, 1-2 days after plating cells onto glass coverslips at densities appropriate for single cell recording. Currents were amplified by a patch clamp amplifier and filtered at 2 kHz (Axopatch 200B, Axon Instruments). […] Recordings involving agonist stimulations were performed at 22° C. In experiments where temperatures were varied, temperature ramps were generated by heating/cooling the perfusate in a dual in-line heater/cooler (Model SC-20, Warner Instruments, Hamden, Conn.) controlled by a bipolar temperature controller (Model CL-100, Warner Instruments). The temperature in the vicinity of the recorded cell was measured with a custom-made miniature thermo-microprobe connected to a monitoring thermometer (Model TH-8, Physitemp, Clifton, N.J.), and sampled using Digidata 1322A and pClamp 9.0 (Axon Instruments, Union City, Calif.), as were the currents concurrently measured in the whole-cell patch clamp mode. Two voltage protocols were used in these studies. The first involved a 600 ms voltage ramp from −100 mV to +60 mV at a sampling rate of 10 kHz. This voltage pulse was repeated once every 5 seconds. The cell was held at −100 mV between voltage pulses. In the second protocol, the cell was held at −80 mV and the current was continuously sampled (at 100 Hz) at this holding potential."}, "canine CMR1 (cCMR1)": {"system": "canine CMR1 (cCMR1)", "test": "Cell-based calcium influx (FLIPR) assay on HEK293 cells stably transfected with cCMR1", "settings": "for calcium-mediated fluorescence (calcium influx): added at 200 seconds, room temperature", "protocol": "The following day, the cells were loaded with buffer and calcium dye (Molecular Devices, Sunnyvale, Calif.) in a final volume of 40 μl and incubated for 30 minutes at room temperature. The fluorescence intensity was measured by FLIPR before and after the addition of menthol or icilin, which were added to the cells at a concentration of 100 μM or 10 μM each, respectively.\nHEK293 cells stably transfected with cCMR1 were seeded in a 384 will plate at a concentration of […] and incubated overnight at 37° C./5% CO2. The following day the cells were loaded with calcium dye and incubated for 30 minutes at room temperature. The calcium-mediated fluorescence intensity was measured by FLIPR before and after the compound was administered to the cells."}}, "note": "“Also recorded” adds a separate entry of the source.", "data": [{"smiles": "CC1CCC(C(C)C)C(O)C1", "note": "(centres unmarked) [menthol]", "values": [{"measurement": "reversal potential of the menthol-activated current", "setting": "cCMR1 channel; 100 μM menthol, voltage ramp protocol", "result": "~0", "unit": "mV"}, {"measurement": "whole-cell current amplitude", "setting": "cCMR1 channel; 100 μM menthol, voltage ramp −100 mV to +60 mV, 22° C., compared to buffer control", "result": "large increase of the whole-cell current amplitude"}, {"measurement": "current activated in the absence of extracellular Ca^2+", "setting": "cCMR1 channel; 100 μM menthol, −80 mV, no extracellular Ca^2+", "result": "activated a non-desensitizing current"}, {"measurement": "calcium-mediated fluorescence (calcium influx)", "setting": "canine CMR1 (cCMR1); 100 μM (−)-menthol", "result": "increase in calcium-mediated fluorescence"}]}, {"smiles": "O=C1NC(c2cccc([N+](=O)[O-])c2)=CCN1c1ccccc1O", "note": "[icilin]", "values": [{"measurement": "whole-cell current amplitude, rectification and reversal potential", "setting": "cCMR1 channel; icilin (1 μM), voltage ramp protocol, compared with the menthol results", "result": "Qualitatively similar results"}, {"measurement": "calcium-mediated fluorescence (activation of cCMR1)", "setting": "canine CMR1 (cCMR1); 100 nM icilin (positive control)", "result": "sensitive; also recorded: increase in calcium-mediated fluorescence"}, {"measurement": "calcium-mediated fluorescence (calcium influx)", "setting": "canine CMR1 (cCMR1); 10 μM icilin", "result": "increase in calcium-mediated fluorescence"}]}, {"smiles": "C=CCN=C=S", "note": "[mustard oil]", "values": [{"measurement": "calcium-mediated fluorescence (activation of cCMR1)", "setting": "canine CMR1 (cCMR1); 1 mM mustard oil", "result": "activated; also recorded: increase in calcium-mediated fluorescence"}]}, {"smiles": "[Ca+2]", "note": "[extracellular Ca^2+]", "values": [{"measurement": "desensitization of menthol-activated cCMR1 current", "setting": "cCMR1 channel; 1.8 mM extracellular Ca^2+, 100 μM menthol, −80 mV", "result": "desensitization readily occurred"}, {"measurement": "voltage dependence of inhibition of cCMR1 current amplitude", "setting": "cCMR1 channel; 10 mM extracellular Ca^2+, channel activated by 1 mM menthol", "result": "strongly inhibited the current amplitude at hyperpolarized potentials"}, {"measurement": "IC50", "setting": "cCMR1 channel; voltage-clamped at −80 mV, channel activated by 1 mM menthol, logistic best fit, read-out: IC50 of inhibition of cCMR1 current amplitude by extracellular Ca^2+", "result": 1600, "unit": "µM"}]}]}
